We go through 28 compounds from patent publication US4783462A, “3(2H)pyridazinone, and anti-allergic agent containing it” (Nissan Chemical Industries Ltd., priority 1985, dated 1988).

Series [1] has as its system LTC4. Kind of series: Antagonism in isolated guinea-pig trachea, Test method (i) (Table 3, given as LTC4 antagonism). The series is classed as cell-based. To be noted: 5 min, test compound 10^-5 g/ml, given as LTC4 antagonisms; for inhibition at 10 µg/mL: Cavia porcellus. In a few lines:
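Spiral strips of guinea-pig trachea under 1 g tension, contracted by LTC4 (2×10^-8 g/ml) after maximal histamine (10^-4 M) response. Compounds added at 10^-5 or 10^-6 g/ml final 5 min beforehand; contraction expressed as % histamine maximum and antagonism % calculated against paired untreated trachea.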

Series [2] has as its system ddY strain male mice. Kind of series: Acute toxicity test, Test method-(2), intraperitoneal. The series is classed as in vivo. The note with it: 7 days. The method, then:
The lethal ratio was determined in ddY strain male mice (4 weeks old) at 7 days after the intraperitoneal injection of test compounds.

For series [3], the system named is anaphylactic bronchoconstriction in passively sensitized guinea-pig. Kind of series: Effect on anaphylactic bronchoconstriction in passively sensitized guinea-pig. The note with it: 2 mg/kg i.v. The series is classed as in vivo. The method, then:
(iii) Effect on anaphylactic bronchoconstriction in passively sensitized guinea-pig
Male guinea-pigs (350-450 g) were passively sensitized with intravenous (i.v.) injection of 0.125 ml rabbit anti-EA (egg albumin) serum (Cappel Laboratories) 1 day preceding the experiment. […] Sensitized guinea-pigs were anaesthetized with intraperitoneal injection of urethane (1.5 g/kg). The right jugular vein was cannulated for the administration of the all agents and trachea was cannulated to record total pulmonary resistance. Guinea-pigs were artificially ventilated by a small animal respirator (Shinano, Model SN-480-7) set at a stroke volume of 5 ml and a rate of 50 breaths per min. […] The increase in air overflow volume was expressed as a percentage of the maximum bronchoconstriction obtained by clamping off the trachea. Following surgical preparation, the animals were pretreated with indomethacin (1.0 mg/kg, 10 min), pyrilamine (2 mg/kg, 6 min) and propranolol (0.1 mg/kg, 5 min) prior to the EA challenge (0.1 or 10 mg/kg). All test compounds, 2 mg/kg in 3% Tween 80 or 3% PEG-400, were administered 1 min before the EA challenge. Inhibition (%) of bronchoconstriction was determined as follows: Inhibition (%)=(1.0%-maximum bronchoconstriction in test/% maximum bronchoconstriction in control)×100. The maximum bronchoconstriction was obtained within 20 min after the EA challenge.
In the Table, the dose of EA was 10 mg/kg, and each compound was dissolved or suspended in 3% Tween 80.
The dose of EA was 0.1 mg/kg.

The subject of series [4] is LTC4. Kind of series: LTC4 antagonism in isolated guinea-pig trachea, Test method (i) (Table 2). The series is classed as cell-based. To be noted: Cavia porcellus, 5 min; LTC4 2×10^-8 g/ml; test compound 10^-5 g/ml; read-out: Antagonism (%). The method, then: (§1) (i) LTC4 and LTD4 antagonisms in guinea-pig trachea
(§2) Antagonisms for LTC4 and LTD4 were determined in isolated guinea-pig trachea prepared as spiral strip. Tracheal preparations were suspended under 1 g tension in 10 ml organ baths and they were incubated for 1 hr prior to use. Contractile responses to LTC4 (2×10^-8 g/ml) and LTD4 (2×10^-8 g/ml) were obtained after the maximal response to histamine (10^-4 M). Test compounds dissolved in 100% dimethyl sulfoxide were added to the organ baths (final concentration of 10^-5 g/ml or 10^-6 g/ml) 5 min prior to LTC4 and LTD4 addition, and then contractile responses to LTC4 and LTD4 were compared with those of control which was obtained from a paired trachea in the absence of test compounds. LTC4 - and LTD4 -induced contractions were expressed as a percentage of the maximal response to histamine. The antagonism was determined as follows:
(§3) Antagonism (%)=(1.0-% contraction in test/% contraction in […]

The test system of series [5] is LTD4. Description: LTD4 antagonism in isolated guinea-pig trachea, Test method (i) (Table 4, values with asterisk). The series is classed as cell-based. The note with it: Cavia porcellus, 5 min, test compound 10^-6 g/ml, 5 min prior. The method, then:
as §1, §2, §3

The test system of series [6] is LTD4. Kind of series: LTD4 antagonism in isolated guinea-pig trachea with indomethacin, Test method (ii) (Table 4). The note with it: Cavia porcellus, 0.5 h, LTD4 2×10^-8 g/ml, test compound 10^-6 g/ml, 30 min prior, 5 μmol indomethacin. Format: cell-based. The method, then:
(ii) LTD4 antagonism in guinea-pig trachea
Antagonism for LTD4 was determined in isolated guinea-pig trachea prepared as spiral strip. Tracheal preparations were suspended under 1 g tension in 10 ml organ baths containing 5 μmol of indomethacin and they were incuated for 1 hr prior to use. Contractile responses to LTD4 (2×10^-8 g/ml) were obtained after the maximal response to histamine (10^-4 M). Test compounds dissolved in 100% dimethyl sulfoxide were added to the organ baths (final concentration of 10^-6 g/ml) 30 min prior to LTD4 addition, and then contractile responses to LTD4 were compared with those of control which was obtained from a paired trachea in the absence of test compounds. LTD4 -induced contractions were expressed as a percentage of the maximal response to histamine. The antagonism was determined as follows:
as §3

Series [7] has as its system ddY strain male mice. Description: Acute toxicity test, Test method-(1), oral. The series is classed as in vivo. The note with it: 7 days. As for the experimental part: The lethal ratio was determined in ddY strain male mice (4 weeks old) at 7 days after the oral administation of test compounds.
The mark [8] stands for this setting: Table 5-(1), EA 10 mg/kg, 3% Tween 80.
The mark [9] stands for this setting: Table 5-(2), EA 0.1 mg/kg, PEG-400.
Setting [10] is: Table 5-(2), EA 0.1 mg/kg, Tween 80.

Take `CCCc1cc(C(=O)OC)ccc1OCCCNc1cn[nH]c(=O)c1Cl` [Compound No. 4, 4-Chloro-5-[3-(2-n-propyl-4-methoxycarbonylphenoxy)propylamino]-3(2H)pyridazinone]: the inhibition at 10 µg/mL in series [1] came out at 85%; in series [4], 99%. Further, the entries for the “Lethal ratio (Death number/Experimental number)” value in series [2] (200 mg/kg intraperitoneal) and in series [2] (400 mg/kg intraperitoneal) were 0/2 and 0/1, respectively. Besides, the “Inhibition (%)” value in series [3] (setting [8]) was 27%.
For `CCCc1cc(C(=O)OC)ccc1OCCCNc1cnn(CC)c(=O)c1Cl` [Compound No. 6, 4-Chloro-5-[3-(2-n-propyl-4-methoxycarbonylphenoxy)propylamino]-2-ethyl-3(2H)pyridazinone], in series [1], the inhibition at 10 µg/mL was determined as 96%. Moreover, the “Inhibition (%)” value in series [3] (setting [9]) was found to be 44%. This compound also registered an inhibition at 1 µg/mL in series [5] of 78%.
As for `CCn1ncc(NCCc2ccc(OC)cc2)c(Cl)c1=O` [Compound No. 20, 4-Chloro-5-[2-(4-methoxyphenyl)ethylamino]-2-ethyl-3(2H)pyridazinone], the inhibition at 10 µg/mL is 80% in series [1] and 73% in series [4].
For `CCCc1cc(C(=O)O)ccc1OCCCNc1cnn(C(C)C)c(=O)c1Cl` [Compound No. 41, 4-chloro-5-[3-(2-n-propyl-4-carboxyphenoxy)propylamino]-2-i-propyl-3(2H)pyridazinone], in series [1], the “Antagonism (%)” value came to 100%. Further, the “Lethal ratio (Death number/Experimental number)” value in series [2] (200 mg/kg intraperitoneal) is reported as 0/2. Also, the “Inhibition (%)” value in series [3] (setting [10]) is on record as 31%. This compound returned an inhibition at 1 µg/mL in series [6] of 82%.
In series [1], `CCCc1cc(C(N)=O)ccc1OCCCNc1cnn(C(C)C)c(=O)c1Cl` [Compound No. 42, 4-Chloro-5-[3-(2-n-propyl-4-carbamoylphenoxy)propylamino]-2-i-propyl-3(2H)pyridazinone] displayed an inhibition at 10 µg/mL of 95%. Further, the figures for the “Lethal ratio (Death number/Experimental number)” value in series [2] (200 mg/kg intraperitoneal) and in series [2] (400 mg/kg intraperitoneal) were 0/2 and 0/1, respectively. Besides, the “Inhibition (%)” value in series [3] (setting [9]) is 31%. Besides, the inhibition at 1 µg/mL in series [6] was determined as 76%.
Turning to `CCCc1cc(OC)ccc1OCCCNc1cnn(CC)c(=O)c1Cl` [Compound No. 82, 4-chloro-5-[3-(2-n-propyl-4-methoxyphenoxy)propylamino]-2-ethyl-3(2H)pyridazinone], the inhibition at 10 µg/mL in series [1] was found to be 100%. Besides, the Lethal ratio in series [7] (400 mg/kg oral) and in series [7] (800 mg/kg oral) was 0/2 throughout.
Compound `CCCCc1cc(C(=O)O)ccc1OCCCNc1cnn(C(C)C)c(=O)c1Cl` [Compound No. 112, 4-chloro-5-[3-(2-n-butyl-4-carboxyphenoxy)propylamino]-2-i-propyl-3(2H) pyridazinone] gave an inhibition at 10 µg/mL in series [1] of 100%. In series [5], the inhibition at 1 µg/mL was found to be 62%.
In the same order, the values of `CCCCc1cc(C(N)=O)ccc1OCCCNc1cnn(C(C)C)c(=O)c1Cl` [Compound No. 114, 4-Chloro-5-[3-(2-n-butyl-4-carbamoylphenoxy)propylamino]-2-i-propyl-3-(2H)pyridazinone] are 89% and 66%.
In the same order, the values of `C=CCc1cc(C#N)ccc1OCCCNc1cnn(CC)c(=O)c1Br` [Compound No. 117] are 98% and 67%.
In turn, `CCCCc1cc(C(=O)O)ccc1OCCCNc1cnn(C(C)C)c(=O)c1Br` [Compound No. 127] displayed an inhibition at 1 µg/mL in series [5] of 91%.
As to `CCCc1cc(C#N)ccc1OCC(CNc1cnn(C(C)C)c(=O)c1Cl)OC` (stereo not shown) [Compound No. 158, 4-Chloro-5-[3-(2-n-propyl-4-cyanophenoxy)-2-methoxypropylamino]-2-i-propyl-3(2H)pyridazinone], the inhibition at 10 µg/mL in series [1] amounted to 93%. The inhibition at 1 µg/mL in series [5] turned out to be 53%.
As for `CCCc1c(OCCCOc2cnn(C(C)(C)C)c(=O)c2Cl)ccc2c(=O)cc(C(=O)OCC)oc12` [compound 23], the results for the inhibition at 10 µg/mL in series [1] and in series [4] were 31% and 27%, respectively.
Take `CCCc1c(OCCCOc2cnn(CC)c(=O)c2Cl)ccc2c(=O)cc(C(=O)OCC)oc12` [compound 25]: the inhibition at 10 µg/mL is 24% in series [1] and 53% in series [4]. For the same compound, the “Inhibition (%)” value in series [3] (setting [8]) is 18%.
Regarding `CCCc1cc(C#N)ccc1OCCCNc1cnn(CC)c(=O)c1Cl` [compound 47], in series [1], the inhibition at 10 µg/mL came to 99%. In addition, the “Lethal ratio (Death number/Experimental number)” value in series [2] (200 mg/kg intraperitoneal) and in series [2] (400 mg/kg intraperitoneal) was 0/2 in each case. Also, the “Inhibition (%)” value in series [3] (setting [8]) is reported as 28%.
Take `C=CCc1cc(C#N)ccc1OCCCNc1cnn(C(C)C)c(=O)c1Cl` [compound 69]: in series [1], the inhibition at 10 µg/mL turned out to be 99%. The “Inhibition (%)” value in series [3] (setting [10]) came out at 51%. This compound registered an inhibition at 1 µg/mL in series [5] of 66%.
`Cc1ccccc1OCCCNc1cnn(C(C)C)c(=O)c1Cl` [compound 72] yielded an inhibition at 10 µg/mL in series [1] of 85%. Further, the Lethal ratio in series [7] (400 mg/kg oral) is reported as 0/2.
`C=CCc1cc(C#N)ccc1OCCCNc1cnn(CC)c(=O)c1Cl` [compound 80]: the inhibition at 10 µg/mL in series [1] is 98%. This compound came in with an inhibition at 1 µg/mL in series [5] of 59%. Further, the Lethal ratio in series [7] (400 mg/kg oral) and in series [7] (800 mg/kg oral) was 0/2 throughout.
Regarding `CCc1cc(C=O)ccc1OCCCNc1cnn(C(C)C)c(=O)c1Cl` [compound 94], the inhibition at 10 µg/mL in series [1] came to 98%. Moreover, the Lethal ratio in series [7] (400 mg/kg oral) and in series [7] (800 mg/kg oral) was 0/2 throughout.
In series [1], `CCc1cc(C(=O)OC)ccc1OCCCNc1cnn(C(C)C)c(=O)c1Cl` [compound 101] had an inhibition at 10 µg/mL of 92%. Further, the “Inhibition (%)” value in series [3] (setting [9]) is 51%. The Lethal ratio in series [7] (400 mg/kg oral) and in series [7] (800 mg/kg oral) was 0/2 throughout.
As for `CCCc1cc(C#N)ccc1OCCCNc1cnn(CC)c(=O)c1Br` [compound 116], in series [1], the inhibition at 10 µg/mL came out at 90%. This compound also displayed an inhibition at 1 µg/mL in series [5] of 82%.
In the same order, the values of `CCCc1cc(C(=O)OC)ccc1OCCCNc1cnn(CC)c(=O)c1Br` [compound 118] are 91% and 69%.
For `CCCc1cc(C#N)ccc1OCCCNc1cnn(C(C)C)c(=O)c1Br` [compound 120], the inhibition at 1 µg/mL in series [5] is 82%.
On the same count and under the same terms, in the case of `CCCc1cc(C(N)=O)ccc1OCCCNc1cnn(CC)c(=O)c1Br` [compound 121] it was 43%.
On the same count and under the same terms, the same measure for `C=CCc1cc(C#N)ccc1OCCCNc1cnn(C(C)C)c(=O)c1Br` [compound 123]: 65%; for `CCCc1cc(C#N)ccc1OCCCNc1cnn(C(C)(C)C)c(=O)c1CCC` [compound 128]: 17%.
Still for that read-out and setting: the same measure for `CCCc1cc(C(=O)OC)ccc1OCCCNc1cn[nH]c(=O)c1CCC` [compound 131]: 33%; for `CCCc1cc(C(=O)O)ccc1OCCCNc1cn[nH]c(=O)c1CCC` [compound 132]: 26%.
As to `CCCc1cc(C(=O)OC)ccc1OCCCNc1cnn(CC)c(=O)c1CCC` [compound 133], the inhibition at 1 µg/mL in series [5] amounted to 27%.
